Laboratory results taken from patent publication US7947662B2, “Folates, compositions and uses thereof” (priority 2008, dated 2011).
Like-named read-outs stand apart in the source and are kept apart here.

Experiments:
[1] = cited from earlier work
[2] = background statement, cited from earlier work
[3] = Stability of the powder in sealed aluminium foil bag, purity and titre by HPLC; format: physicochemical; conditions: protected from light; for Titre, starting values: HPLC titre of acid moiety; for Titre, starting values / Purity, starting values: start; for Purity, starting values: airtight container
Procedure: The stability of the compounds listed in the following table, under powder form and in sealed aluminium foil bag, was tested, keeping the samples in airtight container, protected from light and measuring the purity and the titre thereof after 6 and 12 months.
In particular, the stability of the acid moiety was observed by HPLC, detecting the purity and titre thereof.

[4] = mice, one capsule
Procedure: The biological tests were carried out on 12 mice weighing 200-300 g, administering to each of them one 3 mg capsule containing the dose of the selected compound, as below reported, dispersed in lactose.
The haematic values of the selected compound were subsequently evaluated after regular time intervals (0, 30, 60, 95, 120 min.).

[5] = after nine months, U.S. Pat. No. 5,817,659 (Example 1)
[6] = after twelve months, U.S. Pat. No. 6,271,374 (Example 1)

Compound	titre decrease [1, 5]	Titre, starting values [3] [%]	Purity, starting values [3]	Purity after 6 months [3]	Titre after 6 months [3] [%]	Purity after 12 months [3]	Titre after 12 months [3] [%]	haematic value ([4]; time 0.5 h) [nmol/L]	haematic value ([4]; time 1.5 h) [nmol/L]	haematic value ([4]; time 2 h) [nmol/L]	also measured
CN1c2c([nH]c(N)nc2=O)NC[C@@H]1CNc1ccc(C(=O)N[C@@H](CCC(=O)[O-])C(=O)[O-])cc1.[Ca+2] [5-methyl-(6S)-tetrahydrofolic acid calcium salts]											titre decrease ([1]; after twelve months, U.S. Pat. No. 6,441,168 (Example 1)): about 1%
Nc1nc(=O)c2c([nH]1)NC[C@H](CNc1ccc(C(=O)N[C@@H](CCC(=O)[O-])C(=O)[O-])cc1)N2.[Ca+2] [(6S)-tetrahydrofolic acid calcium salts]	about 2%										titre decrease [1, 6]: about 7%
Nc1nc2ncc(CNc3ccc(C(=O)N[C@@H](CCC(=O)O)C(=O)O)cc3)nc2c(=O)[nH]1 [Folic acid, N-[4-[[(2-amino-1,4-dihydro-4-oxo-6-pteridinyl)methyl]amino]benzoyl]-L-glutamic acid]											solubility in alcohol ([2]; alcohol): insoluble; solubility in dilute solutions of alkali hydroxides and carbonates [2]: readily soluble; solubility in water ([2]; water): very slightly soluble
Nc1nc(=O)c2c([nH]1)NC[C@@H](CNc1ccc(C(=O)N[C@@H](CCC(=O)[O-])C(=O)[O-])cc1)N2.[Ca+2] [(6R)-tetrahydrofolic acid calcium salts]	about 2%										titre decrease [1, 6]: about 7%
CN1c2c(nc(N)[nH]c2=O)NCC1CNc1ccc(C(=O)NC(CCC(=O)O)C(=O)O)cc1.NC1C(O)OC(CO)C(O)C1O.NC1C(O)OC(CO)C(O)C1O [D-GLU (6S)-5-MTHF, D-glucosamine 5-methyl-(6S)-tetrahydrofolate]		55.7	99.3	99.0	55.4	98.5	55.1	83.7 ± 5.2	83.7 ± 4.3	83 ± 4.3	haematic value ([4]; time 1 h): 86.1 ± 5.0 nmol/L
N[C@H]1C(O)O[C@H](CO)[C@H](O)[C@@H]1O.N[C@H]1C(O)O[C@H](CO)[C@H](O)[C@@H]1O.Nc1nc2ncc(CNc3ccc(C(=O)N[C@@H](CCC(=O)O)C(=O)O)cc3)nc2c(=O)[nH]1 [D-GAL folate, D-galactosamine L-folate]		54.8	99.2	99.1	54.5	98.7	54.2				
CN1c2c(nc(N)[nH]c2=O)NCC1CNc1ccc(C(=O)NC(CCC(=O)O)C(=O)O)cc1.NC1C(O)OC(CO)C(O)C1O.NC1C(O)OC(CO)C(O)C1O (mixture of isomers) [D-GLU 5-MTHF, D-glucosamine 5-methyl-(6R,S)-tetrahydrofolate]		55.2	99.1	98.9	55	99.0	54.8	83.2 ± 4.9	83.8 ± 4.3	82.8 ± 4.3	
N[C@H]1C(O)O[C@H](CO)[C@@H](O)[C@@H]1O.N[C@H]1C(O)O[C@H](CO)[C@@H](O)[C@@H]1O.Nc1nc2ncc(CNc3ccc(C(=O)N[C@@H](CCC(=O)O)C(=O)O)cc3)nc2c(=O)[nH]1 [D-GLU folate, D-glucosamine L-folate]		54.6	99.1	98.8	54.3	98.7	54	75.3 ± 4.3	78.4 ± 4.3	76.8 ± 4.3	haematic value ([4]; time 1 h): 79.8 ± 5.2 nmol/L
Nc1nc(=O)c2c([nH]1)NCC(CNc1ccc(C(=O)N[C@@H](CCC(=O)[O-])C(=O)[O-])cc1)N2.[Ca+2] (stereo partly drawn) [(6R,S)-tetrahydrofolic acid calcium salts]	about 2%										
CN1c2c(nc(N)[nH]c2=O)NCC1CNc1ccc(C(=O)NC(CCC(=O)O)C(=O)O)cc1.NC1C(O)OC(CO)C(O)C1O.NC1C(O)OC(CO)C(O)C1O (mixture of isomers) [D-GAL (6R,S)-5-MTHF, D-galactosamine 5-methyl-(6R,S)-tetrahydrofolate]		55.5	99.1	98.9	55.2	98.7	55.3				
